Target: recombinant His-tag Wip1(2-420) protein (amino acids #2-420) (Homo sapiens (Human), UniProt O15297)
Assay: Wip1(2-420) phosphatase enzyme FDP assay
Format: biochemical
Conditions: fluorescein diphosphate (FDP) substrate, RT 2 hours, fluorescence Ex485/Em535; read-out: WIP1 (Truncated 2-420) FDP Assay: IC50
Description: The Human Wip1 (2-420, aa 2-420) or Wip1 full length (aa 1-605) DNA sequence was codon optimized and synthesized by Genscript for insect cell expression. The open reading frame of Wip1(2-420) with a N-terminal-His6 affinity tag followed by a TEV cleavage site was subcloned sites into the pFastBac1 expression vector. The recombinant bacmid DNA was transfected in Sf9 insect cells for baculovirus production. After 72 hours infection, the Sf9 cells were harvested by centrifugation and resuspended in lysis buffer containing 50 mM Tris/HCl, pH 8.0, 500 mM NaCl, 20% glycerol, Benzonase 0.5% CHAPS and Roche cOmplete™ EDTA free protease inhibitors. Cells were disrupted with microfluidizer and the debris was removed by centrifugation at 185,000 g for 1 hour. The supernatant was subjected to HisTrap FF for affinity purification. Proteins were eluted with a linear gradient of 0-500 mM imidazole in HisTrap buffer containing 50 mM Tris/HCl, pH 8.0, 500 mM NaCl and 20% glycerol, 0.05% CHAPS. The eluted protein was dialyzed against dialysis buffer (20 mM MES, 100 mM NaCl, 20% glycerol, 0.5 mM TCEP, 0.05% CHAPS) followed purification via HiTrap SP HP column. The protein was eluted with a gradient of 100 mM-2 M NaCl in dialysis buffer. His6-[…] was finally concentrated and loaded onto a size-exclusion column (NiLoad 16/600 Superdex 200 pg, GE Healthcare) pre-equilibrated with 50 mM MOPS (pH 7.5), 200 mM NaCl, 20% glycerol, 1 mM TCEP, 0.05% CHAPS and 0.1 mM EGTA. The peak fractions containing purified Nis6-Wip1(2-420) were pooled and concentrated to 1.0 mg/mL and flash frozen at −80° C.
Wip1 Length and Wip1(2-420) Phosphatase Enzyme FDP Assays.
Test compounds (252 mM stock in DMSO) were diluted 3 folds in series in DMSO and 1.2 μl per well were added into 384-well polypropylene black plates (Nunc). Twelve μl per well of Assay Buffer (100 mM NaCl, 50 mM MOPS, pH 7.5, 0.8 mM CHAPS, 0.1 mM EGTA, 30 mM MgCl2, 0.3 mM TCEP, 0.2 mg/mL BSA) was added followed by […] per well of 50.4 nM recombinant His-tag Wip1 full length protein (amino acids #1-605) or recombinant His-tag Wip1(2-420) protein (amino acids #2-420) in Assay Buffer and the plate was incubated at RT (22° C.) for 5 min. Ten mM of fluorescein diphosphate (FDP) in DMSO was diluted to […] in Assay Buffer and […] per well was added to the plate and incubated at RT (22° C.) for 2 hours. […] per well of 64.1 mM EDTA in water were added to stop the enzyme reaction. The plate was centrifuged at 1,200 rpm (Eppendorf 5810R Plate centrifuge) for 1 minute and fluorescence intensity (Ex485/Em535) was measured on Perkin Elmer Victor Reader. EC50 values were calculated using either Prism (GraphPad) or ActivityBase software (IDBS), The IC50 results are provided in Table M.

recombinant His-tag Wip1(2-420) protein (amino acids #2-420), sequence (O15297 2-420): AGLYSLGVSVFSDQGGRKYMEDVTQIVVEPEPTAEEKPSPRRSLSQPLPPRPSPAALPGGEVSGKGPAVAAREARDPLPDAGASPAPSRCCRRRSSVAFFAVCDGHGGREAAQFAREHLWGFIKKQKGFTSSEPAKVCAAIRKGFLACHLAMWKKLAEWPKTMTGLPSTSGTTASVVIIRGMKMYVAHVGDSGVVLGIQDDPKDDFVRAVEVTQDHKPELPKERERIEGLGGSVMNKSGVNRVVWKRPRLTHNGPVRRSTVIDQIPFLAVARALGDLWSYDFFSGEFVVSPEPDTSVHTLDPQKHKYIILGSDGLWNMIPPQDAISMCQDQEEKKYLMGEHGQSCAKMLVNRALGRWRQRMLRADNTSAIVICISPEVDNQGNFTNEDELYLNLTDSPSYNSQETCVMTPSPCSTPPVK

| IC50 | Structure (SMILES) |
| --- | --- |
| 7 nM | Cc1ncc(Cl)cc1N[C@@H](C)c1ccc(C(=O)N[C@@H](CC2CCC3CC32)C(=O)NC2CC2)s1 (stereo in doubt) [Compound 273, (2S)-3-[(2S)-bicyclo[3.1.0]hexan-2-yl]-2-({5-[(1S)-1-[(5-chloro-2-methylpyridin-3-yl)amino]ethyl]thiophen-2-yl}formamido)-N-cyclopropylpropanamide] |
| 314 nM | Cc1ncc(Cl)cc1N[C@H](C)c1ccc(C(=O)N[C@@H](CC2CCCC2)C(=O)N[C@@H]2CC2(F)F)s1 [Compound 22, (2S)-2-({5-[(1R)-1-[(5-chloro-2-methylpyridin-3-yl)amino]ethyl]thiophen-2-yl}formamido)-3-cyclopentyl-N-[(1R)-2,2-difluorocyclopropyl]propanamide] |
| 301 nM | COc1ncc(Cl)cc1N[C@H](C)c1ccc(C(=O)N[C@@H](CC2CCCC2)C(=O)NC2CC2)s1 [Compound 35, (2S)-2-({5-[(1R)-1-[(5-chloro-2-methoxypyridin-3-yl)amino]ethyl]thiophen-2-yl}formamido)-3-cyclopentyl-N-cyclopropylpropanamide] |
| 500 nM | COc1ncc(Cl)cc1N[C@H](C)c1ccc(C(=O)N[C@@H](CC2CCCC2)C(=O)NC23CC(C2)C3)s1 [Compound 61, (2S)-N-{bicyclo[1.1.1]pentan-1-yl}-2-({5-[(1R)-1-[(5-chloro-2-methoxypyridin-3-yl)amino]ethyl]thiophen-2-yl}formamido)-3-cyclopentylpropanamide] |
| 270 nM | CC[C@@H](Nc1cc(Cl)cnc1C)c1ccc(C(=O)N[C@@H](CC2CCCC2)C(=O)NC23CC(C2)C3)s1 [Compound 67, (2S)-N-{bicyclo[1.1.1]pentan-1-yl}-2-({5-[(1R)-1-[(5-chloro-2-methylpyridin-3-yl)amino]propyl]thiophen-2-yl}formamido)-3-cyclopentylpropanamide] |
| 693 nM | CC[C@@H](Nc1cc(Cl)cnc1C)c1ccc(C(=O)N[C@@H](CC2CCCC2)C(=O)NC23CC(C#N)(C2)C3)s1 [Compound 81, (2S)-2-({5-[(1R)-1-[(5-chloro-2-methylpyridin-3-yl)amino]propyl]thiophen-2-yl}formamido)-N-{3-cyanobicyclo[1.1.1]pentan-1-yl}-3-cyclopentylpropanamide] |
| 484 nM | COc1ncc(Cl)cc1N[C@H](C)c1ccc(C(=O)N[C@@H](CC2CCCC2)C(=O)NC23CC(C#N)(C2)C3)s1 [Compound 83, (2S)-2-({5-[(1R)-1-[(5-chloro-2-methoxypyridin-3-yl)amino]ethyl]thiophen-2-yl}formamido)-N-{3-cyanobicyclo[1.1.1]pentan-1-yl}-3-cyclopentylpropanamide] |
| 8 nM | Cc1ncc(Cl)cc1N[C@@H](C)c1ccc(C(=O)N[C@@H](CC2CCCC2)C(=O)NC(C)C)s1 [Compound 84, (2S)-2-({5-[(1S)-1-[(5-chloro-2-methylpyridin-3-yl)amino]ethyl]thiophen-2-yl}formamido)-3-cyclopentyl-N-(propan-2-yl)propanamide] |
| 7 nM | Cc1ncc(Cl)cc1N[C@@H](C)c1ccc(C(=O)N[C@@H](CC2CCCC2)C(=O)Nc2ccc(C#N)cc2)s1 [Compound 85, (2S)-2-({5-[(1S)-1-[(5-chloro-2-methylpyridin-3-yl)amino]ethyl]thiophen-2-yl}formamido)-N-(4-cyanophenyl)-3-cyclopentylpropanamide] |
| 8 nM | Cc1cccc(NC(=O)[C@H](CC2CCCC2)NC(=O)c2ccc([C@H](C)Nc3cc(Cl)cnc3C)s2)n1 [Compound 86] |
| 5 nM | Cc1ncc(Cl)cc1N[C@@H](C)c1ccc(C(=O)N[C@@H](CC2CCCC2)C(=O)NC2CCC2)s1 [Compound 87, (2S)-2-({5-[(1S)-1-[(5-chloro-2-methylpyridin-3-yl)amino]ethyl]thiophen-2-yl}formamido)-N-cyclobutyl-3-cyclopentylpropanamide] |
| 6 nM | Cc1ncc(Cl)cc1N[C@@H](C)c1ccc(C(=O)N[C@@H](CC2CCCC2)C(=O)NC2CCC2C)s1 (stereo partly drawn) [Compound 88, (2S)-2-({5-[(1S)-1-[(5-chloro-2-methylpyridin-3-yl)amino]ethyl]thiophen-2-yl}formamido)-3-cyclopentyl-N-(2-methylcyclobutyl)propanamide] |
| 102 nM | C[C@@H](c1ccc(C(=O)N[C@@H](CC2CCCC2)C(=O)NC2CC2)s1)N(C)c1cncc(Cl)c1 [Compound 89, (2S)-2-({5-[(1S)-1-[(5-chloropyridin-3-yl)(methyl)amino]ethyl]thiophen-2-yl}formamido)-3-cyclopentyl-N-cyclopropylpropanamide] |
| 11 nM | C[C@H](c1ccc(C(=O)N[C@@H](CC2CCCC2)C(=O)NC2CC2)s1)N(C)c1cncc(Cl)c1 [Compound 90, (2S)-2-({5-[(1R)-1-[(5-chloropyridin-3-yl)(methyl)amino]ethyl]thiophen-2-yl}formamido)-3-cyclopentyl-N-cyclopropylpropanamide] |
| 19 nM | COC(=O)CNC(=O)[C@H](CC1CCCC1)NC(=O)c1ccc([C@H](C)Nc2cc(Cl)cnc2C)s1 [Compound 91, methyl 2-[(2S)-2-({5-[(1S)-1-[(5-chloro-2-methylpyridin-3-yl)amino]ethyl]thiophen-2-yl}formamido)-3-cyclopentylpropanamido]acetate] |
| 10 nM | Cc1ncc(Cl)cc1N[C@@H](C)c1ccc(C(=O)N[C@@H](CC2CCC3CC32)C(=O)NC2CC2)s1 (stereo partly drawn) [Compound 92, (2S)-3-{bicyclo[3.1.0]hexan-2-yl}-2-({5-[(1S)-1-[(5-chloro-2-methylpyridin-3-yl)amino]ethyl]thiophen-2-yl}formamido)-N-cyclopropylpropanamide] |
| 208 nM | Cc1ncc(Cl)cc1N[C@@H](C)c1ccc(C(=O)N[C@@H](CC2CCCC2)C(=O)NCC(=O)O)s1 [Compound 93, 2-[(2S)-2-({5-[(1S)-1-[(5-chloro-2-methylpyridin-3-yl)amino]ethyl]thiophen-2-yl}formamido)-3-cyclopentylpropanamido]acetic acid] |
| 5 nM | COC(=O)[C@H]1C[C@H](NC(=O)[C@H](CC2CCCC2)NC(=O)c2ccc([C@H](C)Nc3cc(Cl)cnc3C)s2)C1 [Compound 94, methyl (1r,3r)-3-[(2S)-2-({5-[(1S)-1-[(5-chloro-2-methylpyridin-3-yl)amino]ethyl]thiophen-2-yl}formamido)-3-cyclopentylpropanamido]cyclobutane-1-carboxylate] |
| 10 nM | Cc1ncc(Cl)cc1N[C@@H](C)c1ccc(C(=O)N[C@@H](CC2CCCC2)C(=O)N[C@H]2C[C@H](C(=O)O)C2)s1 [Compound 95, (1r,3r)-3-[(2S)-2-({5-[(1S)-1-[(5-chloro-2-methylpyridin-3-yl)amino]ethyl]thiophen-2-yl}formamido)-3-cyclopentylpropanamido]cyclobutane-1-carboxylic acid] |
| 76 nM | C[C@@H](c1ccc(C(=O)N[C@@H](CC2CCCC2)C(=O)NC23CC(C2)C3)s1)N(C)c1cncc(Cl)c1 [Compound 96, (2S)-N-{bicyclo[1.1.1]pentan-1-yl}-2-({5-[(1S)-1-[(5-chloropyridin-3-yl)(methyl)amino]ethyl]thiophen-2-yl}formamido)-3-cyclopentylpropanamide] |

| Structure (SMILES) | IC50 |
| --- | --- |
| Cc1ncc(Cl)cc1N[C@H](C)c1ccc(C(=O)N[C@@H](CC2CCCC2)C(=O)NC2CC2)s1 [Compound 9, 5-[(1R)-1-[(5-chloro-2-methyl-3-pyridyl)amino]ethyl]-N-[(1S)-1-(cyclopentylmethyl)-2-(cyclopropylamino)-2-oxo-ethyl]thiophene-2-carboxamide] | 411 nM |

From patent US20240116910A1, “Heterocycles as WIP1 Inhibitors” (PMV Pharmaceuticals, Inc., priority 2022, published 2024)
